Each molecule was assayed against T1, TRAF6WTStrepII-Ubc13FH interaction (Homo sapiens, UniProt Q9Y4K3) (assay: ALPHAScreen TRAF6-Ubc13 interaction assay). Details: TRAF6 100 nM, Ubc13FH 75 nM; class symbols; read-out: IC50 Alphascreen (inhibition of TRAF6-UBC13 interaction).
T1 construct: RING-Zincfinger1 (RZ1) domain (residues 50-159) of human TRAF6 wildtype; made in house; host or cells: E. coli BL21 codon plus RIPL
T1 sequence (Q9Y4K3 with tags, fused parts or gaps): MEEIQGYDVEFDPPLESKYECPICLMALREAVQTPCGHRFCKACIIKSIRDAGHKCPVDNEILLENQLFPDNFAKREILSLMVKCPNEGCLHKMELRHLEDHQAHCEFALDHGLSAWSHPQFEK
Assay type: binding
Text: In order to identify small molecules that specifically target the RZ1 domain of TRAF6 and thereby prevent its binding to Ubc13, the ALPHAScreen technology (PerkinElmer) was chosen to detect TRAF6WTStrepII-Ubc13FH interaction in High-Throughput-Screenings as well as Structure Activity Relationship (SAR) analysis.
For performance of an automated ALPHAScreen assay, all following components were pre-diluted in ALPHAScreen buffer (1×PBS, 0.5% BSA, 0.01% Tween-20). First, the TRAF6 protein (end concentration 100 nM, 30 μL volume) was added to 384-well-opti-plates involving the MultiFlo dispensing system (BioTek) followed by transfer of the compounds via the Sciclone G3 transfer station (PerkinElmer). After addition of Ubc13FH (end concentration 75 nM, 10 μL volume) with the MultiFlo system and incubation for one hour at room temperature, both beads (Strep-Tactin Alpha Donor beads and Nickel-Chelate acceptor beads; end concentrations 4 μg each, 10 μL volume each) were mixed and added using the MultiFlo system in subdued light. Read-out of the plates occurred after another hour of incubation at room temperature. Statistical parameters including the coefficient of variation, Z′ factor and signal window were calculated to determine the quality of the HTS campaign. To evaluate the efficacy of the compounds, ALPHAScreen units of compound-treated samples were referred to DMSO control treated samples. Thereby, the TRAF6D57K mutant served as the control for minimum signal and was included on every plate of the screening. Compounds that inhibited TRAF6WTStrepII-Ubc13FH by more than 25% were considered as actives. After elimination of ALPHAScreen frequent hitter compounds and His-tag frequent hitters (Schorpp, K., I. Rothenaigner, E. Salmina, et al., Identification of Small-Molecule Frequent Hitters from AlphaScreen High-Throughput Screens. J Biomol Screen, 2014. 19(5): p. 715-26), 178 compounds were defined as primary hits and were subsequently tested in five-point serial dilution assays (2.5-40 μM) in TRAF6WTStrepII-Ubc13FH ALPHAScreen experiments. Only compounds with dose-dependent effects on TRAF6WTStrepII-Ubc13FH (n=27) were taken for further research. For analog testing, all compounds were analyzed in ten-point titration (0.2-100 μM) in TRAF6WTStrepII-Ubc13FH ALPHAScreen experiments. In parallel, the compounds were tested in the ALPHAScreen TruHits Kit (PerkinElmer) to rule out unspecific interference with the ALPHAScreen technology.

`COC(=O)c1ccc(CN2CCN(C(=O)CCc3c(C)nn(-c4ccc5nnc(C)n5n4)c3C)CC2)cc1` [Example 96] and `CC(=O)c1ccc(CN2CCN(C(=O)CCc3c(C)nn(-c4ccc5nnc(C)n5n4)c3C)CC2)cc1` [Example 108] cannot be ordered by IC50: no more than 3 µM for the first, no more than 10 µM for the second.

`Cc1nn(-c2ccc3nnc(C)n3n2)c(C)c1CCC(=O)N1CCN(Cc2ccc(C(=O)O)cc2)CC1` [Example 97] and `Cc1nn(-c2ccc3nnc(C)n3n2)c(C)c1CCC(=O)N1CCN(Cc2ccc(C(N)=O)cc2)CC1` [Example 118] cannot be ordered by IC50: no more than 3 µM for the first, no more than 10 µM for the second.

`COC(=O)c1cccc(CN2CCN(C(=O)CCc3c(C)nn(-c4ccc5nnc(C)n5n4)c3C)CC2)c1` [Example 98] and `CC(=O)c1cccc(CN2CCN(C(=O)CCc3c(C)nn(-c4ccc5nnc(C)n5n4)c3C)CC2)c1` [Example 125] cannot be ordered by IC50: no more than 10 µM for the first, no more than 3 µM for the second.

`Cc1nn(-c2ccc3nnc(C)n3n2)c(C)c1CCC(=O)N1CCN(Cc2cccc(C(=O)O)c2)CC1` [Example 99] and `CNC(=O)c1cccc(CN2CCN(C(=O)CCc3c(C)nn(-c4ccc5nnc(C)n5n4)c3C)CC2)c1` [Example 101] cannot be ordered by IC50: no more than 3 µM for the first, no more than 30 µM for the second.

`Cc1nn(-c2ccc3nnc(C)n3n2)c(C)c1CCC(=O)N1CCNC(Cc2ccccc2)C1` (centres unmarked) [Example 102] and `Cc1nn(-c2ccc3nnc(C)n3n2)c(C)c1CCC(=O)N1CCC(C)(Cc2ccccc2)C1` (centres unmarked) [Example 119] cannot be ordered by IC50: no more than 30 µM for the first, no more than 3 µM for the second.

`Cc1nn(-c2ccc3nnc(C)n3n2)c(C)c1CCC(=O)N1CCN(Cc2ccc(C#N)cc2)CC1` [Example 109] and `Cc1nn(-c2ccc3nnc(C)n3n2)c(C)c1CCC(=O)N1CCN(Cc2ccc(I)cc2)CC1` [Example 111] cannot be ordered by IC50: no more than 30 µM for the first, no more than 30 µM for the second.

`Cc1nn(-c2ccc3nnc(C)n3n2)c(C)c1CCC(=O)N1CCN(Cc2ccc(C(F)(F)F)cc2)CC1` [Example 110] and `Cc1nn(-c2ccc3nnc(C)n3n2)c(C)c1CCC(=O)N1CCN(Cc2ccc(N(C)C)cc2)CC1` [Example 114] cannot be ordered by IC50: no more than 30 µM for the first, no more than 10 µM for the second.

`CC(=O)Nc1ccc(CN2CCN(C(=O)CCc3c(C)nn(-c4ccc5nnc(C)n5n4)c3C)CC2)cc1` [Example 112] and `Cc1nn(-c2ccc3nnc(C)n3n2)c(C)c1CCC(=O)N1CCN(Cc2ccc(NS(C)(=O)=O)cc2)CC1` [Example 117] cannot be ordered by IC50: no more than 10 µM for the first, no more than 10 µM for the second.

`Cc1nn(-c2ccc3nnc(C)n3n2)c(C)c1CCC(=O)N1CCN(Cc2ccc(-c3ccccc3)cc2)CC1` [Example 113] and `Cc1nn(-c2ccc3nnc(C)n3n2)c(C)c1CCC(=O)N1CCN(Cc2ccc([N+](=O)[O-])cc2)CC1` [Example 115] cannot be ordered by IC50: no more than 10 µM for the first, no more than 3 µM for the second.

`Cc1nn(-c2ccc3nnc(C)n3n2)c(C)c1CCC(=O)N1CCN(Cc2ccc(S(C)(=O)=O)cc2)CC1` [Example 116] and `Cc1nn(-c2ccc3nnc(C)n3n2)c(C)c1CCC(=O)N1CCN(Cc2ccc(O)c(Cl)c2)CC1` [Example 123] cannot be ordered by IC50: no more than 3 µM for the first, no more than 3 µM for the second.

`Cc1cc(C(=O)O)ccc1CN1CCN(C(=O)CCc2c(C)nn(-c3ccc4nnc(C)n4n3)c2C)CC1` [Example 121] and `Cc1cc(CN2CCN(C(=O)CCc3c(C)nn(-c4ccc5nnc(C)n5n4)c3C)CC2)ccc1[N+](=O)[O-]` [Example 122] cannot be ordered by IC50: no more than 3 µM for the first, no more than 3 µM for the second.

Molecule `Cc1nn(-c2ccc3nnc(C)n3n2)c(C)c1CCC(=O)N1CCN(Cc2cccc(C#N)c2)CC1` [Example 126] has an IC50 of no more than 3 µM.

`Cc1nn(-c2ccc3nnc(C)n3n2)c(C)c1CCC(=O)N1CCN(Cc2cccc(C(N)=O)c2)CC1` [Example 100] and `Cc1nn(-c2ccc3nnc(C)n3c2)c(C)c1CCC(=O)N1CCN(Cc2ccccc2)CC1` [Example 105] cannot be ordered by inhibition at 100 µM: no less than 30% for the first, no less than 30% for the second.

`Cc1nn(-c2ccc3nnc(C)n3n2)c(C)c1CCC(=O)N1CCCC(Cc2ccccc2)C1` (centres unmarked) [Example 103] and `Cc1nn(-c2ccc3nnc(C)n3c2)c(C)c1CCC(=O)N1CCCC(Cc2ccccc2)C1` (centres unmarked) [Example 106] cannot be ordered by inhibition at 100 µM: no less than 30% for the first, no less than 30% for the second.

`Cc1nn(-c2ccc3nnc(C)n3c2)c(C)c1CCC(=O)N1CCC(CCc2ccccc2)CC1` [Example 104] and `Cc1nn(-c2ccc3nnc(C)n3c2)c(C)c1CCC(=O)N1CCC(Cc2ccccc2)C1` (centres unmarked) [Example 107] cannot be ordered by inhibition at 100 µM: no less than 30% for the first, no less than 30% for the second.
